Patent US6893829B2, “Human leukocyte 12-lipoxygenase and its role in the pathogenesis of disease states” (City of Hope, priority 1992, dated 2005)

Experiments:
MO binding to HAEC = test: Monocyte binding to human aortic endothelial cells; assay type: cell-based
Experimental: The rate of atherosclerosis is accelerated in humans with diabetes mellitus (DM). Applicants recently published evidence that high glucose (HG) exposure of human aortic endothelial cells (HAEC) selectively increases monocyte (MO) but not neutrophil binding (56). HG exposure to EC can increase arachidonic acid (AA) release and lipoxygenase (LO) production formation. In the current study, applicants evaluated the role of 12- and 15-LO products in MO binding to HAEC. Culture of HAEC in HG (25 mM) for two passages increased MO binding compared to cells maintained in 5.5 mM glucose (239±30 cells/field HG vs 111±7, p<0.01). Phenidone (10^−6M), an inhibitor of the 12-LO pathway (50 percent inhibition of HG-induced binding, p<0.05). […] 12(S)-HETE added to HAEC cultured in 5.5 mM glucose increased MO binding (66±6 cells/field control vs 114±4 12-HETE 10^−10M, p<0.01). […] In summary, (1) elevated glucose increases MO binding to HAEC and this effect can be reduced by blockade of the LO pathway; (2) 12 but not 15-LO products, can increase MO binding.

MAP kinase activity = test: AII- and 12-HETE-induced mitogenic (MAP kinase) activities with 12-LO inhibitors; assay type: cell-based, Chinese hamster
Experimental: It has been discovered that the administration of AII results in biphasic activation of MAP kinase (all of the MAP kinase experiments were conducted in CHO-AT1a cells—AII receptor AT1a cDNA transfected Chinese hamster ovary cells). […] Thus, the administration of a 12-LO inhibitor decreases AII- and/or 12-HETE-induced MAP kinase activity, thereby decreasing the effects which AII and/or 12-HETE have on cell growth and development.

MCF-7 cells = test: Proliferation of MCF-7 cells; assay type: cell-based, human; conditions: baicalein 10 μM, CDC 10^−5M, NDGA 30 μM, ibuprofen 10^−5M
[1] = test system: VEGF in vascular smooth muscle cells (VSMC); test: VEGF protein, mRNA and secretion in VSMC (Western, Northern, EIA); assay type: cell-based, Porcine and human
Experimental: In addition to the work reflected in FIGS. 8-10, it has now been discovered that AII, 12-HETE and hyperglycemia (HG) increase VEGF production in vascular smooth muscle cells (VSMC). Porcine and human VSMC were cultured for at least two passages under normal glucose (NG, 5.5 mM) or under HG conditions. VEGF protein expression was determined by Western blotting and VEGF mRNA by Northern blots. HG alone increased the level of VEGF mRNA (2.8-fold) and protein (3.2-fold). […] In addition, HG increased the secretion of VEGF into the medium as measured by a specific EIA (56.2±4 ng/ml NG vs 73±5 HG, p<0.02).

[2] = test system: 12-HETE in L6 muscle cells; test: 12-HETE in L6 muscle cells; assay type: cell-based, rat; conditions: n = 2
Experimental: 6. […] L6 muscle cells are skeletal muscle cells from rats which have been used to investigate the mechanisms of insulin action. When L6 muscle cells are incubated in xylose (5.5, mM), they are much more responsive to insulin when compared to cells in regular glucose (5.5 mM) or high glucose (25 mM). […] Thus, elevated 12-Lipoxygenase products, such as 12-HETE, appear to play an important role in reduced insulin metabolic actions caused by high glucose.

12-LO activity in HSMC = test: 12-HETE release and cell-associated 12-HETE in HSMC (HPLC/RIA); assay type: cell-based, human; conditions: baicalein 10^−5 mol/L, data not shown
Experimental: FIG. 3A illustrates the effect of AII on 12-HETE release by HSMC. HSMC were grown to confluency. Serum was removed and cells were incubated in media 199 containing 0.4% fetal bovine serum (FBS) and 0.2% BSA for 18 hours. Cells were then washed with DME media and incubated for 20 minutes in DME media containing 0.2% BSA. AII was added to the cells for five and ten minutes at the concentrations of 10^−9 and 10^−8 mol/L. Media were collected for HETE assay. • *p<0.05 vs control n=4
FIG. 3B illustrates the effect of AII on cell-associated 12-HETE levels in HSMC. After collecting supernatants, cells were washed with ice-cold PBS and harvested by scraping for the assay of cell-associated HETEs. • *p<0.02 vs control n=4
HSMC and HAEC monolayers were washed twice with ice-cold PBS and then processed for RNA extraction or western analysis as described below. For hydroxyeicosatetraenoic acid (HETE) assay, approximately 24 hours prior to an experiment, the medium was replaced with medium 199 containing 0.4% FBS and 0.2% BSA.
These assays were performed using previously published methods (10,11). Briefly, 12- and 15-HETE are extracted from supernatants and cells on C18 mini columns (Analytichem International, CA) and measured using our validated reverse phase gradient HPLC and (RIA) methods.
Another major aspect of this invention is the discovery that AII increases the activity and expression of 12-LO mRNA and protein in HSMC.

[3] = test system: beta sub-unit of the human insulin receptor; test: Insulin receptor phosphorylation in rat-1-fibroblasts containing the human insulin receptor; assay type: cell-based; conditions: baicalein 10^−6M, last 24 hours
Experimental: 7. Baicalein, a selective 12-LO inhibitor, can prevent glucose-induced insulin resistance. To perform these studies, applicants cultured rat-1-fibroblasts that have been engineered to contain the human insulin receptor for ten days in high glucose (25 mM). For the last 24 hours, the cells were cultured with 10^−6M baicalein. The marked bands represent the phosphorylated beta sub-unit of the human insulin receptor (FIG. 23). As the band becomes lighter, it represents reduced insulin action. Lane 1 represents the insulin receptor phosphorylation in normal glucose (5.5 mM) vs the reduced insulin action in lane 5 (25 mM glucose).

12-LO in RINm5F cells = test: 12-LO protein, mRNA and activity in RINm5F cells; assay type: cell-based, rat
Experimental: FIG. 12 illustrates a western immunoblot of proteins isolated from the insulin producing rat beta cell line, RINm5F showing the effect of interleukin-1β on 12-LO protein expression. In these studies, 25 μg of protein was isolated from the cells grown for 16 hours in reduced serum-containing medium 0.4% alone or along with IL-1β (0.1 ng/ml).
(§1) Applicants have discovered that direct addition of the 12-LO products 12-S-HETE or 12-HPETE directly decreases cellular growth as reflected by decreased ^3H thymidine incorporation or DNA synthesis in the rat pure beta cell line RIN-M5F.
(§2) It has been discovered that IL-1β induces 12-LO protein and mRNA expression in RIN-M5F cells and 12-LO mRNA expression in rat islets.

[4] = test system: 12-LO in rat pancreatic islets; test: 12-HETE production and 12-LO mRNA in rat pancreatic islets; assay type: cell-based
Excerpt: as §1, §2

[5] = test system: leukocyte-type 12-LO in PVSMC; test: 12-LO activity, mRNA and protein in PVSMC; assay type: cell-based, porcine; conditions: 24 hours; for increase in 12-HETE HPLC peak (12-LO enzyme activity): 2.5 ng/ml; for 12-LO mRNA expression in PVSMC: FIG. 14
Experimental: FIG. 14A illustrates the dose-dependent effect of the cytokine interleukin-1β on 12-LO mRNA expression in porcine aortic smooth muscle cells (PVSMC). Confluent PVSMC growth in normal glucose medium was serum depleted for 24 hours by placing in medium+0.2% BSA+0.4% FCS. This medium was then freshly replaced along with IL-1β and the cells incubated for a further 24 hours. At the end of the incubation, total RNA was extracted from the cells using RNA-STAT. This RNA was the subjected to reverse-transcriptase polymerase chain reaction (RT-PCR) to detect and quantitate leukocyte-type 12-LO mRNA (333 bp PCR product, upper panel) using our well established techniques. The expression of GAPDH mRNA 284 bp, lower panel) was used as an internal control for PCR and for quantitation.
FIG. 14B illustrates the effect of the cytokine IL-4 on 12-LO mRNA expression in PVSMC. The ells were treated for 24 hours with IL-4 and 12-LO mRNA quantitated as described in the legend to FIG. 14A. It is clearly seen that IL-4 also increases 12-LO mRNA expression similar to IL-1β.
FIG. 14C illustrates the effect of the cytokine IL-8 on 12-LO mRNA expression in PVSMC. The cells were treated for 24 hours with IL-8 and 12-LO mRNA quantitated as described under legend 14A.
(§3) The cells were cultured in DME (normal glucose) and treated for 24 hours±cytokines in medium containing 0.2% BSA and 0.4% serum. Intracellular 12-LO enzyme activity was measured by HPLC, leukocyte-type 12-LO protein expression by immunoblotting and 12-LO mRNA by a specific reverse transcriptase polymerase chain reaction (RT-PCR). […] Treatment with these cytokines (0.5-5 ng/ml) also led to an increase (1.4-2.5-fold) in 12-LO protein expression 72 kD). In addition, all three cytokines (2.5 ng/ml) could induce a significant increase in PVSMC DNA synthesis (1.280.08, 1.67±0.11 and 1.3±0.07 fold increase in ^3H thymidine incorporation with IL-1, -4, and -8 respectively, p<0.01).

PVSMC = PVSMC DNA synthesis (3H thymidine incorporation); assay type: cell-based, porcine; conditions: 2.5 ng/ml
Experimental: as §3

[6] = test system: VEGF protein in MCF-7 cells; test: VEGF protein expression in breast cancer cells (immunoblot); assay type: cell-based, human; conditions: MCF-7, 24 hours
Experimental: FIG. 8 illustrates the dose-dependent effect of platelet-derived growth factor (PDGF) on vascular endothelial growth factor (VEGF) protein (42 kD) expression in MCF-7 breast cancer cells. Nearly confluent MCF-7 cells were serum starved for 24 hours by placing in DME medium+0.4% FCS and 0.2% BSA. This medium was then freshly replaced and the cells incubated for another 24 hours with PDGF. At the end of the incubation, the cell monolayers were washed with ice-cold PBS, scraped into PBS and pelleted by centrifugation. The cell pellets were then lysed and equal amounts of protein (50 μg) subjected to electrophoresis and immunoblotting to detect VEGF using a specific antibody from Santa Cruz Biotechnology. Detection was by a chemiluminiscent technique.
FIG. 9 illustrates the effect of epidermal growth factor (EGF) and the 12-lipoxygenase product 12-HETE on VEGF protein expression in the MCF-7 breast cancer cell line MCF-7. MCF-7 cells were treated with EGF and 12-HETE for 24 hours and VEGF protein identified as described in the legend to FIG. 8.

[7] = Calcium gluconate infusion: urinary PGI2 and 12-HETE; assay type: in vivo, human
Excerpt: Vascular tissue from diabetic animals and man metabolize arachidonic acid differently from normals. PGI2 is a vasodilator, antithrombolic, and renin secretagogue while 12-hydroxyeicosatetraenoic acid (12-HETE) is proinflammatory and inhibits cyclooxygenase (CO). Applicants earlier reported a prostacyclin (PGI2) deficiency in diabetics with hyporeinemic hypoaldosteronism (HH) (46). Applicants explored the production of the CO product, PGI2 and the lipoxygenase (LO) product, 12-HETE in NIDDM patients with normal renal function (NR), those with microalbuminuria (MiA0, macroabluminuria (MaA) and HH patients. PGI2 (6 keto PGF^1) and 12-HETE were measured in urine by HPLC followed by RIA using published methods. Results are:
Low dose calcium infusions have been previously shown to increase PGI2, probably via activation of tissue phospholipases. […] This supports the concept that a defect in prostacyclin formation exists in NIDDM.

[8] = NIDDM patients with microalbuminuria
[9] = normal subjects, three hour infusion

## 12(R)-Hydroxyeicosatrienoic acid
MO binding to HAEC
  lowest concentration showing effects on MO binding: 10^−12 M

## CCCCC[C@H](O)/C=C/C=C\C/C=C\C/C=C\CCCC(=O)O [15(S)-HETE]
MO binding to HAEC; 15(S)-HETE 10^−6 to 10^−12M
  MO binding to HAEC: did not stimulate

## N#C/C(=C\c1ccc(O)c(O)c1)C(=O)OC/C=C/c1ccccc1 [CDC]
MAP kinase activity
  AII- and 12-HETE-induced mitogenic activities: dose-dependently reduce
MCF-7 cells
  proliferation of MCF-7 cells: significantly inhibited

## O=C[C@H](O)[C@@H](O)[C@H](O)[C@H](O)CO [HG, glucose]
[1]; HG alone vs NG 5.5 mM
  level of VEGF mRNA: 2.8 fold
  level of VEGF protein: 3.2 fold
[1]; HG, NG 56.2±4
  secretion of VEGF into the medium (EIA): 73 ± 5 ng/mL
MO binding to HAEC; HAEC in HG 25 mM for two passages, 5.5 mM glucose 111±7
  MO binding: 239±30 cells/field
[2]; high glucose 25 mM
  12-HETE in the cells: 620 pg/total cells
  12-HETE release in the media: 110.3 pg/mL
[2]; regular glucose 5.5 mM
  12-HETE in the cells: 472 pg/total cells
  12-HETE release in the media: 101.8 pg/mL

## CC(Cc1ccc(O)c(O)c1)C(C)Cc1ccc(O)c(O)c1 (stereo not shown) [NDGA]
MCF-7 cells
  proliferation of MCF-7 cells: significantly inhibited

## O=C1CCN(c2ccccc2)N1 [Phenidone]
MO binding to HAEC; Homo sapiens, Phenidone 10^−6M, read-out: inhibition of HG-induced MO binding
  inhibition at 1 µM: 50%

## O=C[C@H](O)[C@@H](O)[C@H](O)CO [Xylose, xylose]
[2]; xylose 5.5 mM
  12-HETE in the cells: 398 pg/total cells
  12-HETE release in the media: 53.2 pg/mL

## O=c1cc(-c2ccccc2)oc2cc(O)c(O)c(O)c12 [baicalein]
12-LO activity in HSMC
  12-HETE levels in response to AII: could be reduced
MAP kinase activity
  AII- and 12-HETE-induced mitogenic activities: dose-dependently reduce
MCF-7 cells
  proliferation of MCF-7 cells: significantly inhibited
[3]
  insulin receptor phosphorylation in 25 mM glucose: restoration of insulin receptor phosphorylation

## CC(C)Cc1ccc(C(C)C(=O)O)cc1 (stereo not shown) [ibuprofen]
MCF-7 cells
  proliferation of MCF-7 cells: not

## IL-1β: cytokine interleukin-1β
12-LO in RINm5F cells; IL-1β 0.1 ng/ml, 16 hours
  increase in 12-LO protein expression: 2 fold
12-LO in RINm5F cells; RIN-M5F
  12-LO pathway activity (radioimmunoassay for 12-HETE): increased 12-LO pathway activity
12-LO in RINm5F cells; RIN-M5F, 16 hours
  12-LO mRNA expression (competitive PCR): concomitant increase
12-LO in RINm5F cells; human IL-1B at 0.2 ng
  increase in leukocyte 12-LO protein expression: approximately two
[4]
  12-LO mRNA and enzyme activity in purified Sprague-Dawley rat islets: increased expression of 12-LO mRNA and enzyme activity
[4]; IL-1B 2.5 ng/ml, basal 92
  immunoreactive release of 12-S-HETE: 250 pg/ml/40 islets
[5]
  increase in 12-HETE HPLC peak (12-LO enzyme activity): 51%
  12-LO mRNA expression in PVSMC: dose-dependent increase

## IL-4: cytokine IL-4
[5]
  increase in 12-HETE HPLC peak (12-LO enzyme activity): 43%
  12-LO mRNA expression in PVSMC: increases
PVSMC
  increase in 3H thymidine incorporation: 1.67±0.11 fold

## PDGF
[6]
  VEGF protein expression: dose-dependent increase

## calcium gluconate
[7]; [8]
  12-HETE: further stimulation
  PGI2: no increase
[7]; [9]
  12-HETE: highly significant increase
  PGI2: highly significant increase
